# Measurements published in patent publication US20130012432A1, “Peptides for Treatment of Obesity” (Novo Nordisk A/S, priority 2010, published 2013).
# Positions of bridges follow the written chain, without caps; N, C: chain ends. Non-standard residues stand in square brackets, D forms with d. Residues, ends and D or L forms follow the SMILES beside them. Groups on a side chain read outwards from the residue. *: point of attachment. Palmitoyl(16-(5-tetrazolyl)) = O=C(CCCCCCCCCCCCCCCc1nnn[nH]1)*; Lys(CH2CO2H)2 = N[C@@H](CCCCN(CC(=O)O)CC(=O)O)C(=O)O; C17 diacid = O=C(O)CCCCCCCCCCCCCCCC(=O)*; Hyp = O=C(O)[C@@H]1C[C@@H](O)CN1; Orn = NCCC[C@H](N)C(=O)O; AEEA = NCCOCCOCC(=O)O
# How the values were obtained:
# [1] = target: MC1 receptor (Homo sapiens, UniProt Q01726); test: biochemical
# Outline: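 Compounds competed against 125I-NDP-α-MSH (22 pM final) for binding to stably MC1-expressing BHK cell membranes, 30 °C for 90 min in HEPES pH 7.4 buffer with 0.1% HSA or ovalbumin. Bound ligand collected by filtration and counted; binding curves analysed by non-linear regression.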
# [2] = physchem
# Method: From a stock solution in vehicle, either H2O or 10 mM phosphate, containing 1 mg (as weighed) compound per ml, 8-11 aliquots are withdrawn and pH-adjusted individually with HCl/NaOH, to cover the whole pH range.
# MC1 receptor, sequence (Q01726 whole entry): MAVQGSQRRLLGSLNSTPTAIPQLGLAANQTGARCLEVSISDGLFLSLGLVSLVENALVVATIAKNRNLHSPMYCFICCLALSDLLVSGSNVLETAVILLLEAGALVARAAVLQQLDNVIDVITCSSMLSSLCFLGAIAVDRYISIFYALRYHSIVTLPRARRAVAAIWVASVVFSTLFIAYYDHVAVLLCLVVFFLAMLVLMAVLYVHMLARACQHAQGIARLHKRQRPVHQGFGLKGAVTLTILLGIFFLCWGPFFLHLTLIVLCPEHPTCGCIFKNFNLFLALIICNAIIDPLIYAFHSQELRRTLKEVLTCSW
Structure (SMILES),Ki [1],"solubility ([2]; pH 6.7, Solubility Conc.)","solubility ([2]; pH 7, Solubility Conc.)","solubility ([2]; pH 7.3, Solubility Conc.)","solubility ([2]; pH 7.4, Solubility Conc.)","solubility ([2]; pH 7.5, Solubility Conc.)","solubility ([2]; pH 7.6, Solubility Conc.)","solubility ([2]; pH 7.8, Solubility Conc.)","solubility ([2]; pH 8, Solubility Conc.)","solubility ([2]; pH 8.1, Solubility Conc.)","solubility ([2]; pH 8.3, Solubility Conc.)","solubility ([2]; pH 5.7, Solubility Conc.)","solubility ([2]; pH 6.4, Solubility Conc.)","solubility ([2]; pH 6.6, Solubility Conc.)","solubility ([2]; pH 6.8, Solubility Conc.)","solubility ([2]; pH 7.2, Solubility Conc.)","solubility ([2]; pH 7.9, Solubility Conc.)","solubility ([2]; pH 7.7, Solubility Conc.)"
"CC(=O)N[C@H]1CCC(=O)NCCCC[C@@H](C(=O)N2C[C@H](O)C[C@H]2C(=O)N2C[C@H](O)C[C@H]2C(=O)N[C@@H](CCCNC(=N)N)C(=O)N[C@@H](CC(=O)O)C(=O)N[C@@H](CCCCN(CC(=O)O)CC(=O)O)C(=O)N[C@@H](CCCCNC(=O)COCCOCCNC(=O)CCCCCCCCCCCCCCCc2nnn[nH]2)C(N)=O)NC(=O)[C@H](Cc2c[nH]c3ccccc23)NC(=O)[C@H](CCCNC(=N)N)NC(=O)[C@@H](Cc2ccccc2)NC(=O)[C@H](Cc2c[nH]cn2)NC1=O [Example 48, Ac-c[Glu-His-D-Phe-Arg-Trp-Lys]-Hyp-Hyp-Arg-Asp-Lys(biscarboxymethyl)-Lys[(2-{2-[16-(tetrazol-5-yl)hexadecanoylamino]ethoxy}ethoxy)acetyl]-NH2] (Ac-EH[dF]RWK[Hyp][Hyp]RD[Lys(CH2CO2H)2]K([AEEA-Palmitoyl(16-(5-tetrazolyl))])-NH2; lactam 1-6)",> 10 µM,54 µM,107 µM,218 µM,309 µM,368 µM,416 µM,430 µM,420 µM,418 µM,412 µM,,,,,,,
"CC(=O)N[C@H]1CCC(=O)NCCC[C@@H](C(=O)N2CCC[C@H]2C(=O)N2CCC[C@H]2C(=O)N[C@@H](CCCNC(=N)N)C(=O)N[C@@H](CC(=O)O)C(=O)N[C@@H](CCCCN(CC(=O)O)CC(=O)O)C(=O)N[C@@H](CCCCNC(=O)COCCOCCNC(=O)CCCCCCCCCCCCCCCc2nnn[nH]2)C(N)=O)NC(=O)[C@H](Cc2c[nH]c3ccccc23)NC(=O)[C@H](CCCNC(=N)N)NC(=O)[C@@H](Cc2ccccc2)NC(=O)[C@H](CCC(N)=O)NC1=O [Example 37, Ac-c[Glu-Gln-D-Phe-Arg-Trp-Orn]-Pro-Pro-Arg-Asp-Lys(biscarboxymethyl)-Lys[(2-{2-[16-(tetrazol-5-yl)hexadecanoylamino]ethoxy}ethoxy)acetyl]-NH2] (Ac-EQ[dF]RW[Orn]PPRD[Lys(CH2CO2H)2]K([AEEA-Palmitoyl(16-(5-tetrazolyl))])-NH2; lactam 1-6)",> 10 µM,,510 µM,486 µM,,458 µM,467 µM,,,,,95 µM,464 µM,450 µM,453 µM,482 µM,507 µM,
"CC(=O)N[C@H]1CCCCNC(=O)C[C@@H](C(=O)N2CCC[C@H]2C(=O)N2CCC[C@H]2C(=O)N[C@@H](Cc2c[nH]cn2)C(=O)N[C@@H](CO)C(=O)N[C@@H](CCCCN(CC(=O)O)CC(=O)O)C(=O)N[C@@H](CO)C(=O)N[C@@H](CO)C(=O)N[C@@H](CCC(=O)O)C(=O)N[C@@H](CCCCNC(=O)COCCOCCNC(=O)CCCCCCCCCCCCCCCC(=O)O)C(N)=O)NC(=O)[C@H](Cc2c[nH]c3ccccc23)NC(=O)[C@H](CCCNC(=N)N)NC(=O)[C@@H](Cc2ccccc2)NC(=O)[C@H](Cc2c[nH]cn2)NC1=O [Example 45, Ac-c[Lys-His-D-Phe-Arg-Trp-Asp]-Pro-Pro-His-Ser-Lys(biscarboxymethyl)-Ser-Ser-Glu-Lys({2-[2-(16-carboxyhexadecanoylamino)ethoxy]ethoxy}acetyl)-NH2] (Ac-KH[dF]RWDPPHS[Lys(CH2CO2H)2]SSEK([AEEA-C17 diacid])-NH2; lactam 1-6)",> 10 µM,334 µM,370 µM,391 µM,,380 µM,,,,400 µM,,,199 µM,,350 µM,,391 µM,379 µM
